“And” between values parts separate entries of the source, which are not always exact repeats. Equal values may be shown once. Read-outs that look alike come from different tables or passages of the source.
Experiments:
[1] = test system: calcium-permeable AMPA receptors (CP-AMPARs); assay: Whole-cell patch clamp, block of kainate-induced currents in striatal giant interneurons; assay type: cell-based, rat
Protocol: (§1) The rats were anesthetised with sevoflurane and then decapitated. […] All experiments were performed at room temperature.
(§2) Pentamidine isethionate (P-155) was from Alomone laboratories.
(§3) The voltage dependence of compounds action was analysed by Woodhull model for permeable blockers ([Woodhull, 1973]; [Tikhonova et al., 2008]). According to this model, the voltage dependence of steady-state blockade is given by Equation 1: BV=100%−100%/1+C/KbexpF/RT zδb V+Kp exp−F/RT zδp V (1) where V is voltage, B is level of block (%), C is concentration of the drug, z is molecular charge, and R, F and T have their standard meanings. Kb is the affinity of a drug for the channel. The δb value reflects the fraction of membrane electric field that the charged blocking molecule crosses on its pathway between the external media and the binding site in the channel (where the total field has a value of 1). Parameters Kp and δp describe permeation through the channel. […] For this reason, we used Equation 2, which takes into account the possibility of inhibitor to bind also at superficial site ([Nikolaev and Tikhonov, 2023]), assuming that the binding to the deep and superficial site is independent. BV=100%−100%/1+C/KbexpF/RT zδb V+Kp exp−F/RT zδp V+C/Kvin+C^2/Kvin KbexpF/RT zδb V+Kp exp−F/RT zδp V (2)
(§4) All experimental data are presented as the mean ± SD estimated from at least four experiments (cells). Significance of the effects was tested with t-tests. Differences were considered significant at p < 0.05. Concentration dependencies were approximated by Hill equation. Voltage dependencies were approximated by Equation 1 or 2. […] Then all data was pooled together and the parameters of voltage dependence were estimated using the fitting of all measurements. For each holding potential ≥4 cells were used. Voltage dependence parameters (binding constants and δb values) are shown as the result of the fitting ± approximation errors.

NMDA receptors = target: NMDA receptors; design: method as in Zhigulin and Barygin, 2023; conditions: ref Zhigulin and Barygin, 2023, cited from earlier work; for IC50: read-out: IC50 at -80mV, μM NMDAR; for δb NMDAR / Kb: channel site; for Kb: read-out: Kb, μM NMDAR; for Kd: superficial site, read-out: Kvin, μM NMDAR
[2] = target: T1, calcium-impermeable AMPA receptors (CI-AMPARs) (Rattus norvegicus, UniProt P19490+P19491, Q607R); assay: Whole-cell patch clamp, kainate-induced currents in hippocampal CA1 pyramidal neurons; assay type: cell-based; conditions: for δb CI-AMPAR: fixed δb values obtained from the CP-AMPARs data; for inhibition at 200 µM: furamidine 50 µM
T1 sequence (P19491 22-883 Q607R): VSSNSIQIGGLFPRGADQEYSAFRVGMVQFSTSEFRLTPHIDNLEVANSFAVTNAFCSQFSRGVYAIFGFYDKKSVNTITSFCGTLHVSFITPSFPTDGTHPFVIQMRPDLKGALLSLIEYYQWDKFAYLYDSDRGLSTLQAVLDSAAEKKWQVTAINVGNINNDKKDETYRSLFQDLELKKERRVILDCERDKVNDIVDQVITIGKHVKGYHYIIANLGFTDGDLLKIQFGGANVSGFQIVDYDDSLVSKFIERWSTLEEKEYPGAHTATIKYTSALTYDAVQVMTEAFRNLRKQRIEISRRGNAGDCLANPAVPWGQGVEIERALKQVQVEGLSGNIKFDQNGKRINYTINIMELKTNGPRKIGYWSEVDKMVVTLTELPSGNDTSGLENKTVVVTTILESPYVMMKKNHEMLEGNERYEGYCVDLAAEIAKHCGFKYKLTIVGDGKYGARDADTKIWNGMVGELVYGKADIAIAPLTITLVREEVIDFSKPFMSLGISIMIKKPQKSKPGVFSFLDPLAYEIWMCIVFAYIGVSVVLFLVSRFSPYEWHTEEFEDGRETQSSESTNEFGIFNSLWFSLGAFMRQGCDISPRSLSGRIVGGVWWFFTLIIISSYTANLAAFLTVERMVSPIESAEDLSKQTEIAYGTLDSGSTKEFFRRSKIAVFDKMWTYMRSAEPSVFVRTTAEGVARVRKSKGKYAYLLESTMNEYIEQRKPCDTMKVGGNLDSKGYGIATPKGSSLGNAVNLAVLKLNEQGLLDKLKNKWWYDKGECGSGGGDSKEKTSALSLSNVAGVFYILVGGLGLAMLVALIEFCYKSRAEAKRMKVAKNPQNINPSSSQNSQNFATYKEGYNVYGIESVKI
T1 sequence (P19490 19-907): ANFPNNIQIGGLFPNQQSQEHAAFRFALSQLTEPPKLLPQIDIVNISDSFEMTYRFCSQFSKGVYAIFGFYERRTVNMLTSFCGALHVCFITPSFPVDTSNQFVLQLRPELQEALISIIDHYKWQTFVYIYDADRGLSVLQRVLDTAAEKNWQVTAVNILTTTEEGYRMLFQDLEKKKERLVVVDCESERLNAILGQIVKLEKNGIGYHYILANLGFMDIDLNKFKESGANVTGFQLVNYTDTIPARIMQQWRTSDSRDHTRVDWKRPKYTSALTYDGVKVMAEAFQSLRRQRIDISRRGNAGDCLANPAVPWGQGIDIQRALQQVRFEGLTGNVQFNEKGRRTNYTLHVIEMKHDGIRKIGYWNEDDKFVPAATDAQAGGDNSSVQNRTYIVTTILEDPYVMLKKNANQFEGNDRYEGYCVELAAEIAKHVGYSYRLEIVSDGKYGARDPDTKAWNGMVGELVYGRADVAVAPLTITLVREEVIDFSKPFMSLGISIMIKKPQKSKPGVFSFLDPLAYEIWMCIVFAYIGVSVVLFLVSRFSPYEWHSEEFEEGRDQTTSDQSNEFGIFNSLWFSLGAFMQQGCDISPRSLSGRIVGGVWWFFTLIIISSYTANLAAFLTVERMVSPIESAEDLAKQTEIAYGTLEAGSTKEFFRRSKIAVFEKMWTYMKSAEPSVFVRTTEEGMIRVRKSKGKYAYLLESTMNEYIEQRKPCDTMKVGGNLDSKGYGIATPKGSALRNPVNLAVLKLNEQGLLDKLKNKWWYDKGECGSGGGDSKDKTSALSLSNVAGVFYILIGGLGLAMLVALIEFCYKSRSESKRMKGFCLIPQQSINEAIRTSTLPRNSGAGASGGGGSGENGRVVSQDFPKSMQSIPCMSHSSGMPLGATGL
Protocol: as §1, §2, §3, §4

[3] = test system: calcium-permeable AMPA receptors (CP-AMPARs); design: method as in Zhigulin et al., 2022; conditions: −80 mV, ref Zhigulin et al., 2022, cited from earlier work
[4] = target: T1, calcium-impermeable AMPA receptors (CI-AMPARs); design: method as in Zhigulin et al., 2022; conditions: 100 µM compound, −80 mV; ref Zhigulin et al., 2022; cited from earlier work
[5] = target: T1, calcium-impermeable AMPA receptors (CI-AMPARs); assay: Whole-cell patch clamp, glutamate-induced currents in hippocampal CA1 pyramidal neurons
Protocol: The rats were anesthetised with sevoflurane and then decapitated. The brains were brought out quickly and cooled to 2°C–4°C. Transverse striatal or hippocampal slices were cut using a vibratome (Campden Instruments) and stored in a solution containing (in mM): NaCl 124, KCl 5, CaCl2 1.3, MgCl2 2.0, NaHCO3 26, NaH2PO4 1.24, D-glucose 10, aerated with carbogen (95% O2, 5% CO2). All experiments were performed at room temperature.
Vibrodissociation method ([Vorobjev, 1991]; [Jun et al., 2011]) was used to free CA1 pyramidal neurons or giant striatal interneurons from slices. This method allows isolating cells without enzymatic treatment and keep them in more native state. […] The antagonism of CI-AMPARs was studied on pyramidal neurons from the CA1 area of the hippocampus. These cells were isolated from the stratum pyramidale and distinguished from non-pyramidal cells on the basis of pyramidal-like somata and preserved apical dendrites.
To record membrane currents in response to applications of kainate or glutamate the whole-cell configuration of patch clamp technique was used. Series resistance (<20 MΩ) was compensated by 70%–80% and monitored during experiments. […]
AMPA receptors were activated with 100 µM kainate or 1 mM glutamate unless otherwise stated. […] The effects of compounds on steady-state currents for different drug concentrations were measured at −80 mV holding voltages. […]

[6] = 100 µM compound, kainate-induced current, −80 mV
[7] = kainate-induced current, −80 mV; read-out: IC50, µM CP-AMPARs
[8] = voltage dependence fitted by eq. 1; read-out: Kb, µM CP-AMPARs (binding to channel site)
[9] = voltage dependence −140 to +40 mV fitted by eq. 1
[10] = −80 mV; IEM-1925 1 µM, pentamidine 50 μM

Molecule	Block at 100 µM, % CP-AMPARs [1, 6]	IC50 [1, 7]	IC50 (NMDA receptors; −80 mV)	Kb [1, 8]	δb CI-AMPAR [2]	δb NMDAR (NMDA receptors)	Kb (NMDA receptors)	Kd (NMDA receptors)	δb CP-AMPARs (fraction of membrane electric field to channel site) [1, 9]	further results
CN(C)C(=O)COC(=O)Cc1ccc(OC(=O)c2ccc(NC(=N)N)cc2)cc1 [Camostat]	16 ± 4 (n=4) %	> 100 µM	> 100 µM							Block at 100 µM, % CP-AMPARs ([1]; 100 µM compound, kainate-induced current, −80 mV; listed as camostat): < 50%; IC50 at -80mV, μM NMDAR (NMDA receptors; −80 mV): ineffective
N=C(N)c1ccc(-c2cc3ccc(C(=N)N)cc3[nH]2)cc1 [DAPI, 4′,6-diamidino-2-phenylindole]	83 ± 4 (n=4) %	27 ± 1 µM	3.1 µM	5.4 ± 1.2 µM	0.65	0.55	5000 µM	3.2 µM		Block at 100 µM, % CI-AMPARs [2, 6]: 64 ± 5 (n=6) %; Kb ([2]; fitted by eq. 2 with fixed δb values from CP-AMPARs data, read-out: Kb, µM CI-AMPARs (binding to channel site)): 24 ± 7 µM; Kd ([2]; fitted by eq. 2 with fixed δb values from CP-AMPARs data, read-out: Kvin, µM CI-AMPARs (binding to superficial site)): 62 ± 6 µM; IC50 ([2]; kainate-induced current, −80 mV): 59 ± 9 µM
N=C(N)c1ccc(/N=N/Nc2ccc(C(=N)N)cc2)cc1 [Diminazene]			13 µM	47 ± 5 µM	0.65	0.55	1500 µM	14 µM	0.64 ± 0.05 and 0.65	δb CP-AMPARs (fraction of membrane electric field to channel site) ([1]; voltage dependence −140 to +40 mV fitted by eq. 1; listed as diminazene): around 0.7; Block at 100 µM, % CP-AMPARs ([3]; 100 µM compound): 69 ± 4 %; IC50 [3]: 60 ± 11 µM; Block at 100 µM, % CI-AMPARs [4]: 31 ± 7 %
N=C(N)c1ccc(-c2ccc(-c3ccc(C(=N)N)cc3)o2)cc1 [Furamidine]	79 ± 7 (n=4) %		0.64 µM		0.7	0.55	22 µM	3.3 µM	0.72 ± 0.15 and 0.7	Block at 100 µM, % CP-AMPARs ([1]; 100 µM compound, kainate-induced current, −80 mV; listed as furamidine): 75–80%; IC50 ([1]; read-out: IC50, µM CP-AMPARs; kainate-induced current, −80 mV): 38 µM; Kb ([1]; read-out: Kb, µM CP-AMPARs (binding to channel site); voltage dependence fitted by eq. 1): 15 µM; δb CP-AMPARs (fraction of membrane electric field to channel site) ([1]; voltage dependence −140 to +40 mV fitted by eq. 1; listed as furamidine): around 0.7
CCOC(=O)c1ccc(OC(=O)CCCCCNC(=N)N)cc1 [Gabexate]	30 ± 4 (n=4) %	> 100 µM	16 µM			0.55	800 µM	25 µM		
N=C(N)c1ccc2cc(OC(=O)c3ccc(N=C(N)N)cc3)ccc2c1 [Nafamostat]	60 ± 11 (n=4) %	55 ± 24 µM	0.2 µM	9 ± 4 µM	0.75	0.55	11 µM	3 µM	0.76 ± 0.16 and 0.75	IC50 ([1]; kainate-induced current, −80 mV; listed as nafamostat; read-out: IC50, µM CP-AMPARs): ~55 µM; Kb ([1]; voltage dependence fitted by eq. 1; listed as nafamostat; read-out: Kb, µM CP-AMPARs (binding to channel site)): 5 to 10 µM; δb CP-AMPARs (fraction of membrane electric field to channel site) ([1]; voltage dependence −140 to +40 mV fitted by eq. 1; listed as nafamostat): around 0.7
N=C(N)c1ccc(OCCCCCOc2ccc(C(=N)N)cc2)cc1 [Pentamidine]	70 ± 4 (n=4) %	43 ± 9 µM	0.41 µM	36 ± 4 µM	0.5	0.7	27 µM	10 µM	0.49 ± 0.04 and 0.5	washout kinetics τ of perampanel and pentamidine mixture ([1]; 100 nM perampanel + 500 µM pentamidine, in presence of kainate): 620 ± 470 ms; block of CP-AMPARs at +40 mV ([1]; 100 μM, +40 mV, representative example): 27%; block of CP-AMPARs at −40 mV ([1]; 100 μM, −40 mV, representative example): 78%; rectification index (current ratio between +40 mV and −40 mV) ([1]; 10 mM in pipette solution, kainate-induced responses): 0.10 ± 0.04; washout kinetics τ, CP-AMPARs ([1]; in presence of kainate): 120 ± 60 ms; inhibition at 100 µM ([2]; read-out: Block at 100 µM, % CI-AMPARs, 100 µM compound, kainate-induced current, −80 mV): 39 ± 5%; inhibition at 200 µM ([2]; read-out: block of CI-AMPARs with 50 µM kainate, −80 mV, pentamidine 200 µM, no cyclothiazide): 38%; inhibition at 200 µM ([2]; read-out: block of CI-AMPARs with 500 µM kainate, −80 mV, pentamidine 200 μM): 61%; remaining activity at 100 µM ([5]; read-out: Idrug/Icontrol, glutamate-induced steady-state current): 140 ± 10%
N=C(N)c1ccc2cc(OC(=O)c3ccc(NC4=NCCN4)cc3)ccc2c1 [Sepimostat]	66 ± 5 (n=4) %	56 ± 6 µM	3.5 µM	71 ± 9 µM	0.9	0.55	102 µM	7 µM	0.88 ± 0.12 and 0.9	inhibition remaining in trapping protocol after 10 s without kainate ([1]; 300 µM sepimostat): 21% ± 2%; recovery (washout) kinetics τ, CP-AMPARs ([1]; in presence of kainate): 1.5 ± 0.3 s; IC50 ([1]; kainate-induced current, −80 mV; listed as sepimostat; read-out: IC50, µM CP-AMPARs): ~55 µM; δb CP-AMPARs (fraction of membrane electric field to channel site) ([1]; voltage dependence −140 to +40 mV fitted by eq. 1; listed as sepimostat): ~0.9; inhibition at 100 µM ([2]; 100 µM compound, kainate-induced current, −80 mV, read-out: Block at 100 µM, % CI-AMPARs): 37 ± 3%
NS(=O)(=O)c1cc2c(cc1Cl)NC(C1CC3C=CC1C3)NS2(=O)=O (stereo not drawn) [cyclothiazide]										fold induction at 100 µM ([2]; read-out: increase in current at 50 µM kainate): 8 ± 2; fold induction at 100 µM ([2]; read-out: potentiation of responses evoked by 100 µM kainate): 6 ± 3; fold induction at 100 µM ([5]; read-out: enhancement of glutamate-induced currents): 12 ± 3
N#Cc1ccccc1-c1cc(-c2ccccn2)cn(-c2ccccc2)c1=O [perampanel]										inhibition of CP-AMPARs in presence of kainate ([1]; 100 nM perampanel): 50%–70%; inhibition at 0.1 µM ([2]; read-out: inhibition of kainate-induced CI-AMPAR currents in absence of cyclothiazide, 100 nM perampanel): 74%
IEM-1925										inhibition of CP-AMPARs with 50 µM kainate [1, 10]: 40% ± 3%; inhibition of CP-AMPARs with 500 µM kainate [1, 10]: 48% ± 5%

Source: publication PMC11496081, “The diversity of AMPA receptor inhibition mechanisms among amidine-containing compounds” (Frontiers in Pharmacology, 2024)
